We go through five compounds from US9908868B2, “Isoindolinone compounds as GPR119 modulators for the treatment of diabetes, obesity, dyslipidemia and related disorders” (SANOFI, priority 2014, dated 2018).

The target of this assay is T1, human GPR119 (Homo sapiens, UniProt Q8TDV5).
T1 construct: expressed in transfected cells
T1 sequence (Q8TDV5 1-335): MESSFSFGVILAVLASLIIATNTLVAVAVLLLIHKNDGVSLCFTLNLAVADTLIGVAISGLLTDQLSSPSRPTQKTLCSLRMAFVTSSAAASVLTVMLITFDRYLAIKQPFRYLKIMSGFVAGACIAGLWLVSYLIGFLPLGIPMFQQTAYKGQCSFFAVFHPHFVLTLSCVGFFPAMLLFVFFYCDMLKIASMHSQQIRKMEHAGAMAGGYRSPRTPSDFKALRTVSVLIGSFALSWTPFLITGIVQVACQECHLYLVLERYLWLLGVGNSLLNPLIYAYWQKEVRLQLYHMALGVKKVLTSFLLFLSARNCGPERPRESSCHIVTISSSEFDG
The assay is described as follows: Functional cellular assay measuring GPR119-mediated cAMP release (HTRF) in HEK-293 cells stably expressing recombinant human GPR119. The assay is classed as cell-based. The conditions noted are these: cAMP response, cell line expressing human GPR119, 30 minutes at room temperature. The gist of the method: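 HEK-293 cells stably expressing recombinant human GPR119, suspended at 400000 cells/mL in HBSS/20 mM HEPES/0.1% BSA/2 mM IBMX, exposed to compound for 30 minutes at room temperature. cAMP detected by HTRF (665/620 nm ratio) after 1 h with reagents in lysis buffer. EC50 taken as concentration giving 50% of maximal activation.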
(TR-FRET usually uses a lanthanide donor and a delayed reading to cut background.)

Molecules are shown by their SMILES.

Turning to `C[S+]([O-])CN1Cc2ncc(N3CC[C@@H](Oc4ccc(OCC(F)(F)F)nc4)C3=O)cc2C1=O` (stereo partly drawn) [Example 1-63, 6-(methylsulfinylmethyl)-3-[(3R)-2-oxo-3-[[6-(2,2,2-trifluoroethoxy)-3-pyridyl]oxy]pyrrolidin-1-yl]-7H-pyrrolo[3,4-b]pyridin-5-one], the concentration for a half-maximal effect (EC50) came out at 104 nM.
On to `CN(C)C(=O)Cn1c(=O)c2cc(N3CC[C@H](Oc4ccc(OCC5CC5)nc4)C3=O)ccc2n1C` [Example 1-26, 2-[5-[(3S)-3-[[6-(cyclopropylmethoxy)-3-pyridyl]oxy]-2-oxo-pyrrolidin-1-yl]-1-methyl-3-oxo-indazol-2-yl]-N,N-dimethyl-acetamide], for which the EC50 worked out at 14200 nM.
On to `NC(=O)CN1Cc2ccc(N3CC[C@@H](Oc4ccc(C(=O)CCC5CC5)nc4)C3=O)cc2C1=O` [Example 2-56, 2-[6-[(3R)-3-[[6-(3-cyclopropylpropanoyl)-3-pyridyl]oxy]-2-oxo-pyrrolidin-1-yl]-1-oxo-isoindolin-2-yl]acetamide], for which the concentration for a half-maximal effect (EC50) was determined as 34 nM.
Regarding `CCOC(=O)CCc1cc(O[C@@H]2CCN(c3ccc4c(c3)C(=O)N(CC(=O)N(C)C)C4)C2=O)ccc1Cl` [Example 2-45, ethyl 3-[2-chloro-5-[(3R)-1-[2-[2-(dimethylamino)-2-oxo-ethyl]-3-oxo-isoindolin-5-yl]-2-oxo-pyrrolidin-3-yl]oxy-phenyl]propanoate], the EC50 was determined as 1510 nM.
Turning to `CN(C)C(=O)CN1Cc2ccc(N3CC[C@@H](Oc4ccc(F)cc4)C3=O)cc2C1=O` [Example 2-09, 2-[6-[(3R)-3-(4-fluorophenoxy)-2-oxo-pyrrolidin-1-yl]-1-oxo-isoindolin-2-yl]-N,N-dimethyl-acetamide], the EC50 amounted to 739 nM.

By EC50 is commonly meant the concentration that produces a half-maximal response.
